Consider 18 compounds from ChEMBL document CHEMBL1201862, “PubChem BioAssay data set” (2004).

Among the test systems are DLD-1; DMS-114; DMS-273; KM-20L2; LXFL 529; M19-MEL; RXF 631; SNB-78; XF498.
Holding throughout (assay): NCI tumour cell line growth inhibition, 48 h

SMILES strings stand for the structures.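 All cell lines were grown in 96-well plates and treated with compound for 48 hours. At the GI50, growth is halved.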 Activity calls are given as the source filed them. Rule as the data show it: active = GI50 up to about 1.1 µM and inactive = higher.

For `C=CC(=O)N1C/C(=C\c2ccc(Cl)c(Cl)c2)C(=O)/C(=C/c2ccc(Cl)c(Cl)c2)C1`, the GI50 in the experiment on DLD-1 is 0.0374 µM (active); in the experiment with DMS-114, 0.12 µM (active); with DMS-273 it was 0.155 µM (active); with KM-20L2, 0.216 µM (active); in the experiment with LXFL 529, 0.127 µM (active); in the experiment on M19-MEL it was 0.184 µM (active). Also, the figures for the GI50 in the experiment with RXF 631 and in the experiment with SNB-78 were 0.449 µM (active) and 0.261 µM (active), respectively.
For `Cc1ccc(C(c2c(O)c3ccccc3n(-c3ccccc3)c2=O)c2c(O)c3ccccc3n(-c3ccccc3)c2=O)cc1`, the GI50 in the experiment on DLD-1, with DMS-114, in the experiment on DMS-273, with KM-20L2, with LXFL 529 and with M19-MEL was > 100 µM (inactive) each time. In addition, the GI50 with SNB-78 and in the experiment with XF498 was > 100 µM (inactive) throughout.
For `CC1(C)OCN(c2ccc(S(N)(=O)=O)cc2)Cn2c1nc1ccccc12`, the GI50 in the experiment on DLD-1, with DMS-114, with DMS-273, in the experiment with KM-20L2, in the experiment with LXFL 529 and with M19-MEL was > 100 µM (inactive) each time. Moreover, the GI50 in the experiment with SNB-78 and with XF498 was > 100 µM (inactive) throughout.
Regarding `C=CC/C=C/Cc1csc(C(C)(C)C(O)C/C=C/C(=C)CCNC(=O)OC)n1` (configuration not stated), the GI50 in the experiment with DLD-1 was 83.4 µM (inactive); in the experiment on DMS-114, < 0.0132 µM (active); in the experiment on DMS-273 it was 3.26 µM (inactive); with KM-20L2 it was 51.2 µM (inactive); with LXFL 529, 21.2 µM (inactive); with M19-MEL, 25.5 µM (inactive). For the same compound, in the experiment on XF498, the GI50 was > 50 µM (inactive).
With `Cc1ccc(/C=C/C(=O)c2sc(C(N)=S)nc2C)cc1`, the GI50 with DLD-1, in the experiment on DMS-273, with KM-20L2, in the experiment with M19-MEL and with SNB-78 was > 100 µM (inactive) throughout.
As to `Cn1c(=O)c2/c(n(C)c1=O)=N\C=c1\c(=O)n(C)c(=O)n(C)\c1=N\C=2`, the GI50 in the experiment on DLD-1, in the experiment on DMS-114, with KM-20L2, in the experiment with LXFL 529, with M19-MEL and in the experiment with RXF 631 was > 100 µM (inactive) each time. Moreover, the GI50 with SNB-78 was 76.2 µM (inactive).
For the compound `Cc1cc2c(c3oc(C4(C)OC4C4OC4C)cc(=O)c13)C(=O)c1c(O)c(C3CC(C)(N(C)C)C(O)C(C)O3)cc(C3CC(N(C)C)C(O)C(C)O3)c1C2=O` (configuration not stated), the GI50 in the experiment with DLD-1 was 0.0025 µM (active); in the experiment with DMS-273, 0.0025 µM (active); in the experiment with LXFL 529, 0.000227 µM (active); with RXF 631 it was 0.000161 µM (active); in the experiment with SNB-78, 0.0025 µM (active).
Consider `Cc1cccc(C)c1NC(=O)/C(Cl)=C(/Cl)C(=O)O`, for which the GI50 in the experiment with DLD-1 was 7.28 µM (inactive); in the experiment on DMS-114 it was 21.3 µM (inactive); in the experiment on DMS-273, 18.6 µM (inactive); with KM-20L2, 6.92 µM (inactive); in the experiment on LXFL 529, 8.11 µM (inactive); in the experiment with M19-MEL it was 19.9 µM (inactive). For the same compound, the GI50 is 28.2 µM (inactive) in the experiment with SNB-78 and 15 µM (inactive) in the experiment with XF498.
With `COc1ccccc1NC(=O)CC(=O)N/N=C/c1ccc(N(CCC#N)S(=O)(=O)c2ccccc2)cc1`, the GI50 in the experiment with DLD-1, in the experiment on DMS-114, with KM-20L2, in the experiment with LXFL 529, with M19-MEL and with SNB-78 was > 100 µM (inactive) throughout. Also, the GI50 in the experiment with XF498 is > 100 µM (inactive).
For `Nn1c(CCCl)nc2c(Br)cc(Br)cc2c1=O`, the GI50 was 26.8 µM (inactive) with DLD-1; 22.5 µM (inactive) in the experiment with DMS-114; 30.3 µM (inactive) with DMS-273; 26 µM (inactive) in the experiment on KM-20L2; 24.7 µM (inactive) in the experiment with LXFL 529; 32.1 µM (inactive) in the experiment with M19-MEL. Also, the GI50 in the experiment with SNB-78 was 34 µM (inactive); with XF498 it was 20.6 µM (inactive).
In the case of `Cc1ccc(S(=O)OC2C3CC4CC(C3)CC2C4)cc1` (configuration not stated), the GI50 in the experiment with DLD-1, in the experiment on DMS-114, with DMS-273, in the experiment with KM-20L2, with LXFL 529 and in the experiment with M19-MEL was > 100 µM (inactive) in each case. The GI50 with SNB-78 and with XF498 was > 100 µM (inactive) throughout.
With `CN/N=C(\C(=O)Nc1ccc([N+](=O)[O-])cc1[N+](=O)[O-])C1NC(=O)NC1=O` (configuration not stated), the GI50 in the experiment with DLD-1 is > 100 µM (inactive); in the experiment on DMS-114 it was > 100 µM (inactive); with DMS-273, 32.2 µM (inactive); with KM-20L2, > 100 µM (inactive); in the experiment on LXFL 529, > 100 µM (inactive); in the experiment with M19-MEL it was > 100 µM (inactive). Moreover, in the experiment with SNB-78, the GI50 was > 100 µM (inactive).
For `C=C1C(=O)OC2CC3(C)C=CC(=O)C(=C)C3CC12` (configuration not stated), the GI50 was 0.329 µM (active) with DLD-1; 3.61 µM (inactive) in the experiment on DMS-114; 1.22 µM (inactive) in the experiment on DMS-273; 2.28 µM (inactive) in the experiment with KM-20L2; 0.664 µM (active) in the experiment with LXFL 529; 1.69 µM (inactive) with M19-MEL. Moreover, the GI50 in the experiment with SNB-78 is 2.43 µM (inactive); in the experiment on XF498, 1.72 µM (inactive).
Turning to `COc1cccc(/C(C=O)=C(\Cl)c2ccc(OC)c(OC)c2)c1`, the GI50 is 12.9 µM (inactive) with DLD-1; 15.1 µM (inactive) in the experiment on DMS-114; 14 µM (inactive) in the experiment with DMS-273; 19.7 µM (inactive) in the experiment with KM-20L2; 11.6 µM (inactive) in the experiment with LXFL 529; 11.3 µM (inactive) in the experiment on M19-MEL. Further, the GI50 in the experiment with SNB-78 is 13 µM (inactive); with XF498 it was 17.3 µM (inactive).
Turning to `Clc1ccc2ns[s+]c2c1`, the GI50 in the experiment on DLD-1 was 0.625 µM (active); in the experiment on DMS-114, 2.61 µM (inactive); in the experiment with DMS-273 it was 0.815 µM (active); in the experiment with KM-20L2 it was 0.317 µM (active); in the experiment on LXFL 529, 0.166 µM (active); in the experiment on M19-MEL it was 1.97 µM (inactive). For the same compound, the GI50 in the experiment with SNB-78 and with XF498 was > 100 µM (inactive) in each case.
Consider `COC(=O)C1=Cc2c(cc(OC)c(OC)c2OC)[C@H](c2ccc(OC)c(OC)c2OC)C1C(=O)OC` (some centres not stated), for which the GI50 in the experiment with DLD-1 was > 100 µM (inactive); in the experiment with DMS-114, 61.7 µM (inactive); with DMS-273, 29.5 µM (inactive); with KM-20L2, > 100 µM (inactive); in the experiment on LXFL 529, > 100 µM (inactive); with M19-MEL, > 100 µM (inactive). For the same compound, the values for the GI50 in the experiment with RXF 631 and with SNB-78 were 71.8 µM (inactive) and 40.8 µM (inactive), respectively.
Turning to `NC(=O)NO` [HYDROXYUREA], the GI50 in the experiment on DLD-1 was 1450 µM (inactive); in the experiment with DMS-273, 137 µM (inactive); in the experiment with KM-20L2, 436 µM (inactive); in the experiment on LXFL 529 it was 713 µM (inactive); in the experiment on M19-MEL, 1420 µM (inactive); in the experiment with SNB-78, 2160 µM (inactive). Also, in the experiment on XF498, the GI50 is 820 µM (inactive).
Consider `O=C(O)Cc1cccc2c(=O)cc(-c3ccccc3)oc12` [MITOFLAXONE], for which the GI50 in the experiment with DLD-1 was > 250 µM (inactive); in the experiment with DMS-114, 227 µM (inactive); in the experiment with DMS-273 it was > 250 µM (inactive); with KM-20L2 it was > 250 µM (inactive); in the experiment with M19-MEL, > 250 µM (inactive); with SNB-78, > 250 µM (inactive). For the same compound, in the experiment on XF498, the GI50 is 33.7 µM (inactive).
